Tests used:
P. falciparum 3D7 = test: In vitro antimalarial assay (PfLDH/diaphorase); type: cell-based; conditions: Plasmodium falciparum, growth inhibition, 72 h, 0.0003 to 10 µM, read-out: EC50 Pf3D7
Experimental: This assay was conducted using human red blood cells (RBC) following the guidelines of the ethics committee of Nagasaki University (permission no. 19). Human RBC was obtained from the Japanese Red Cross Society. The P. falciparum 3D7 strain was cultured in 2% hematocrit type O human RBC in RPMI-1640 medium (Gibco) supplemented with 23.8 mM sodium bicarbonate (Wako), 50 mg/L hypoxanthine (Wako), 25 mg/L gentamycin (Sigma), and 0.5% (w/v) AlbuMAX®® II (Gibco) under a 5% O2, 5% CO2, and 90% N2 atmosphere at 37 °C. Parasites were synchronized with 5% (w/v) D-sorbitol (Wako).
(§1) Synchronized ring-stage parasites at 0.3% parasitemia and 2% hematocrit were cultured in a 384-well plate at 25 µL with test compounds at a final concentration in the range of 0.0003 to 10 µM with a fixed DMSO concentration of 0.4% (v/v). Parasite growth was monitored by the diaphorase-coupled P. falciparum lactate dehydrogenase (PfLDH) assay, as previously described. After 72 h, 70 µL of the assay solution (150 mM lithium L-lactate (Wako), 0.05 mg/mL 3-acetylpyridine adenine dinucleotide (Oriental Yeast Co., Ltd., Tokyo, Japan), 0.2 mg/mL nitro blue tetrazolium (Wako), 1 unit/mL diaphorase, and 100 mM Tris-HCl pH 8.0) were mixed with the parasite culture and incubated at room temperature for 40 min, and the generated nitro blue formazan was measured at 650 nm using a SpectraMax®® Paradigm®® Multi-Mode Microplate Reader. […] The EC50 was calculated using GraphPad Prism 8.0 software from the mean of quadruplets values.

[1] = Cytotoxicity assay, HDF (Cell Counting Kit-8); type: cell-based; conditions: human dermal fibroblast (HDF) cells, normal human dermal fibroblasts
Experimental: (§2) Human dermal fibroblast cells (HDF, Zenbio, Inc., Durham, NC, USA) were cultured in Dulbecco’s Modified Eagle Medium/Nutrient Mixture F-12 medium (DMEM/F12, Gibco), human pancreatic carcinoma cells (PANC-1, DS Pharma Biomedical, Co., Ltd.) were cultured in DMEM (Gibco), and human colorectal adenocarcinoma cells (DLD-1, Taiho Pharmaceutical Company) were cultured in RPMI-1640 medium (FUJIFILM Wako Pure Chemicals). The culture mediums were supplemented with 10% (v/v) heat-inactivated fetal bovine serum (Gibco) and the cells were maintained at 37 °C under 5% CO2.
(§3) HDF, PANC-1, and DLD-1 were seeded at 2.5 × 10^4 cells/well on a 96-well plate and incubated at 37 °C under 5% CO2 overnight. The cells were then washed with PBS and the medium was replaced with 99 µL of fresh media. Then, 1 µL of the compounds or DMSO was added to the respective wells. As controls, wells containing 1% (v/v) DMSO in column 1 and wells containing only the culture medium in column 12 were used as the negative and positive controls, respectively. After 48 h of incubation, the cells were washed with PBS, and 99 µL of fresh media was replaced, followed by the addition of 10 µL of Cell Counting Kit-8 (Dojindo) to each well. After 3 h of incubation, the absorbance was measured at 450 nm using a SpectraMax®® Paradigm®® Multi-Mode microplate Reader. The calculation of cell viability in the test well was based on the absorbance of control wells according to the manufacturer’s protocol. The mean of quadruplet values was used to calculate the CC50 using GraphPad Prism 8.0 software.

[2] = tested on: P. falciparum 3D7 strain expressing the cytosolic yeast DHODH (3D7-yDHODH); test: Confirmation assay against transgenic parasite 3D7-yDHODH; type: cell-based, Plasmodium falciparum; conditions: for activity at 10 µM: 72 h, relative parasite growth at 10 µM compound, read-out: Growth at 10 µM (%) Pf3D7-yDHODH; for susceptibility of Pf3D7-yDHODH parasite (in words): relative parasite growth at 10 µM, compared with wild-type 3D7
Experimental: as §1
The P. falciparum 3D7 strain expressing the cytosolic yeast DHODH (3D7-yDHODH) was prepared as follows. pHHyDHODH-GFP plasmid (Kerafast, Boston, MA, USA) was transfected to the P. falciparum 3D7 strain following the established transfection method. Briefly, 50 µg of plasmid dissolved in cytomix solution (120 mM KCl, 0.15 mM CaCl2, 10 mM K2HPO4/KH2PO4 pH 7.6, 25 mM HEPES-KOH pH 7.6, 2 mM ethylene glycol-bis(β-aminoethyl ether)-N,N,N′,N′-tetraacetic acid (EGTA, Dojindo), and 5 mM magnesium chloride (Wako)) was transfected into the red blood cells by the Gene Pulser Xcell (Bio-Rad). Percoll–sorbitol synchronized parasites were mixed with red blood cells containing plasmid and maintained under 5 nM WR99210 for 2 weeks. The growth of resistant parasites against DSM265 and atovaquone, as PfDHODH and complex III inhibitors respectively, was confirmed by PfLDH/diaphorase assay. A total of 10 µM PfDHODH inhibitors were tested against wild-type 3D7 and 3D7-yDHODH following the method described above in triplicate. The significance of difference between the inhibition of the two parasite strains was evaluated by Student’s t-test (Figure S4).

[3] = molecular target: mammalian mitochondrial complexes I–III (Bos taurus, UniProt P00157+P03887+P17694+P42026); test: NADH-cytochrome c reductase (complexes I–III) activity assay; type: biochemical; conditions: bovine heart mitochondria, range tested 0.0007 to 22.7 µM; read-out: IC50 Mammalian Mitochondrial CI–III
Experimental: (§4) Bovine heart mitochondria were prepared as previously described. The NADH-cytochrome c reductase (complexes I–III) and succinate-cytochrome c reductase (complexes II–III) activities were assayed in 384-well plates following an established protocol with small modifications. Complex I–III activity was assayed in a reaction mix containing 50 mM phosphate buffer pH 7.4, 2 mM KCN, 200 µM cytochrome c (cytochrome c from horse heart, Nacalai tesque), and 15 µg/mL mitochondria. Plates containing 1 µL serial dilutions of PfDHODH inhibitors were prepared and mixed with 38 µL of the reaction mix, as described above. The reaction was started by the addition of 5 µL of 2.6 mM NADH, and the assay was performed as described for PfDHODH, but at 550 nm and with 15 min of incubation. Complex II–III activity was assayed similarly to complex I–III activity but with 100 µM cytochrome c and 25 µg/mL mitochondria, and the reaction was started by 10 mM succinate. For both assays, DMSO and 5 µM ascochlorin were used as negative and positive controls, respectively. Assays were performed in triplicate.

[4] = molecular target: mammalian mitochondrial complexes II–III (Bos taurus, UniProt P00157+P35720+Q3T189+Q95123); test: succinate-cytochrome c reductase (complexes II–III) activity assay; type: biochemical; conditions: bovine heart mitochondria, range tested 0.0007 to 22.7 µM; read-out: IC50 Mammalian Mitochondrial CII–III
Experimental: as §4

[5] = Cytotoxicity assay, PANC-1 (Cell Counting Kit-8); type: cell-based; conditions: PANC-1 human pancreatic carcinoma cells
Experimental: as §2, §3

| SMILES | EC50 (P. falciparum 3D7) | EC50 at 48 h [1] | activity at 10 µM [2] | IC50 [3] | IC50 [4] | EC50 at 48 h [5] | susceptibility of Pf3D7-yDHODH parasite (in words) [2] |
| --- | --- | --- | --- | --- | --- | --- | --- |
| N=C1Sc2cc(-c3ccc4ccccc4c3)ccc2C2=NCCCN12 [Compound 1] | 0.43 ± 0.18 µM | > 10 µM | -0.62 ± 0.07% | > 22.7 µM | > 22.7 µM | > 10 µM | – |
| N=C1Sc2cc(-c3ccc4c(c3)OCO4)ccc2C2=NCCCN12 [Compound 3] | 1.16 ± 0.02 µM | > 10 µM | -0.23 ± 0.01% | > 22.7 µM | > 22.7 µM | > 10 µM | – |
| N=C1Sc2cc(-c3ccc4c(c3)OCCO4)ccc2C2=NCCCN12 [Compound 4] | 1.07 ± 0.05 µM | > 10 µM | 24 ± 5.76% | > 22.7 µM | > 22.7 µM | > 10 µM | – |
| N=C1Sc2cc(-c3ccc4cnccc4c3)ccc2C2=NCCCN12 [Compound 5] | 1.13 ± 0.05 µM | > 10 µM | 26 ± 8.27% | > 22.7 µM | > 22.7 µM | > 10 µM | – |
| N=C1Sc2cc(-c3ccc4c(C(=O)OC(F)(F)F)c[nH]c4c3)ccc2C2=NCCCN12 [Compound 6] | 0.37 ± 0.05 µM | > 10 µM | 104.4 ± 0.11% | > 22.7 µM | > 22.7 µM | > 10 µM | reduced susceptibility |
| N=C1Sc2cc(-c3cc4ccccc4o3)ccc2C2=NCCCN12 [Compound 7] | 0.34 ± 0.01 µM | > 10 µM | 36.2 ± 1.01% | > 22.7 µM | > 22.7 µM | > 10 µM | – |
| N=C1Sc2cc(/C=C/c3ccccc3)ccc2C2=NCCCN12 [Compound 8] | 0.63 ± 0.25 µM | > 10 µM | 0.12 ± 0.21% | > 22.7 µM | > 22.7 µM | > 10 µM | – |
| CC(C)(C)N=C1Sc2cc(-c3cc4ccccc4s3)ccc2C2=NCCCN12 [Compound 10] | 2.77 ± 0.28 µM | > 10 µM | -0.48 ± 0.07% | > 22.7 µM | > 22.7 µM | > 10 µM | – |
| N=C1Sc2cc(-c3ccccc3)ccc2C2=NCCCN12 [Compound 12] | 1.15 ± 0.07 µM | > 10 µM | -0.22 ± 0.12% | > 22.7 µM | > 22.7 µM | > 10 µM | – |
| COC(=O)c1ccc(-c2ccc3c(c2)SC(=N)N2CCCN=C32)cc1 [Compound 13] | 1.06 ± 0.01 µM | > 10 µM | 70.5 ± 0.73% | > 22.7 µM | > 22.7 µM | > 10 µM | reduced susceptibility |
| N#Cc1ccc(-c2ccc3c(c2)SC(=N)N2CCCN=C32)cc1 [Compound 14] | 1.21 ± 0.04 µM | > 10 µM | 105 ± 0.47% | > 22.7 µM | > 22.7 µM | > 10 µM | reduced susceptibility |
| N=C1Sc2cc(-c3ccc(C(F)(F)F)cc3)ccc2C2=NCCCN12 [Compound 15] | 1 ± 0.05 µM | > 10 µM | -0.38 ± 0.17% | > 22.7 µM | > 22.7 µM | > 10 µM | – |
| CSc1ccc(-c2ccc3c(c2)SC(=N)N2CCCN=C32)cc1 [Compound 17] | 1.62 ± 0.56 µM | > 10 µM | -0.5 ± 0.01% | > 22.7 µM | > 22.7 µM | > 10 µM | – |
| N=C1Sc2cc(-c3ccc(OC(F)(F)F)cc3)ccc2C2=NCCCN12 [Compound 18] | 0.37 ± 0.13 µM | > 10 µM | 2.54 ± 0.42% | > 22.7 µM | > 22.7 µM | > 10 µM | – |
| N=C1Sc2cc(-c3ccc(C(=O)c4ccccc4)cc3)ccc2C2=NCCCN12 [Compound 19] | 0.51 ± 0.14 µM | > 10 µM | 68.6 ± 0.43% | > 22.7 µM | > 22.7 µM | > 10 µM | reduced susceptibility |
| C#CCOCc1ccc(C(=O)c2ccc(-c3ccc4c(c3)SC(=N)N3CCCN=C43)cc2)cc1 [Compound 20] | 0.38 ± 0.08 µM | > 10 µM | 0.45 ± 0.74% | > 22.7 µM | > 22.7 µM | > 10 µM | – |
